According to patent publication US20260294874A1, “COMPOSITIONS COMPRISING MODULATORS OF RIBONUCLEOPROTEIN GRANULE FORMATION AND DISSOLUTION AND METHODS OF USE THEREOF” (University of Virginia Patent Foundation, priority 2023, published 2026):
“And” between values parts separate entries of the source, which are not always exact repeats. Equal values may be shown once. “Also recorded” adds a separate entry of the source. Read-outs that look alike come from different tables or passages of the source.

Key:
[1] = system: G3BP1 WT-rescued G3BP KO cells; test: SG formation in G3BP KO U20S cells rescued with G3BP1 WT; assay type: cell-based; conditions: 2 h; for inhibition at 25 µM: G3BP1 WT-rescued G3BP KO U20S cells, read-out: reduction in SGs/cell; for effect on SG formation (in words): G3BP1 WT-rescued G3BP KO cells, 25 μM
Experimental: G3BP KO and rescue studies. U20S G3BP1/2 double knockout (G3BP KO) cell-line was a kind gift from the C. Brangwynne lab (Princeton University, Princeton, New Jersey, United States of America) and generated as previously described in Kedersha et al., 2016. G3BP KO cells were seeded at 9.0×10^4 in a 24-well plate with 12-mm glass coverslips. Next day, the cells were transfected with […] vectors with 1 μg/mL tetracycline and LIPOFECTAMINE™ 3000 brand transfection reagent according to the manufacturer's protocol (Thermo Fisher Scientific). 20 hours post-transfection, the cells were treated with 25 μM SuTEx probes for 2 hours in DMEM medium without FBS. The cells were then treated with 75 μM NaAsO2 for 30 minutes and fixed with 3% paraformaldehyde in PBS for 15 minutes at RT and washed with PBS twice. The same protocols for IF of HeLa cells and quantification of G3BP1-positive SGs described above were followed thereafter.
To determine whether the cell biological effects mediated by HHS-166 were Y40-dependent, we expressed recombinant G3BP1 WT or Y40 mutant in previously established G3BP1/2 double knockout U20S (G3BP KO) cells (Kedersha et al., 2016; Sanders et al., 2020) and evaluated the resulting effects on SG response to [COMPOUND LEFT OUT]. We compared SG response of G3BP KO cells expressing a G3BP1 Y40 covalent binding- and phospho-deficient mutant (Y40F) with a phosphomimetic counterpart (Y40E). G3BP KO cells were previously shown to be deficient in [COMPOUND LEFT OUT]-induced SG formation (Sanders et al., 2020). Expression of G3BP1 WT rescued this deficiency and restored cellular SG response to [COMPOUND LEFT OUT] [1.6 vs 11 SGs/cell in (−)[COMPOUND LEFT OUT] vs (+)[COMPOUND LEFT OUT], respectively; FIGS. 6A and 6B].

[2] = molecular target: T1, recombinant EDC3 (Homo sapiens, UniProt Q96F86); test: Competitive gel-based ABPP, HHS-465 probe labeling of recombinant EDC3 in HEK293T cells; assay type: cell-based; conditions: for inhibition of HHS-465 probe labeling of recombinant EDC3 (in words): 25 μM, 2 h (FIG. 4F), 0.1-100 μM for concentration dependence (FIG. 4D)
T1 construct: FLAG; expressed in transfected cells; host or cells: HEK293T
T1 sequence (Q96F86 1-508): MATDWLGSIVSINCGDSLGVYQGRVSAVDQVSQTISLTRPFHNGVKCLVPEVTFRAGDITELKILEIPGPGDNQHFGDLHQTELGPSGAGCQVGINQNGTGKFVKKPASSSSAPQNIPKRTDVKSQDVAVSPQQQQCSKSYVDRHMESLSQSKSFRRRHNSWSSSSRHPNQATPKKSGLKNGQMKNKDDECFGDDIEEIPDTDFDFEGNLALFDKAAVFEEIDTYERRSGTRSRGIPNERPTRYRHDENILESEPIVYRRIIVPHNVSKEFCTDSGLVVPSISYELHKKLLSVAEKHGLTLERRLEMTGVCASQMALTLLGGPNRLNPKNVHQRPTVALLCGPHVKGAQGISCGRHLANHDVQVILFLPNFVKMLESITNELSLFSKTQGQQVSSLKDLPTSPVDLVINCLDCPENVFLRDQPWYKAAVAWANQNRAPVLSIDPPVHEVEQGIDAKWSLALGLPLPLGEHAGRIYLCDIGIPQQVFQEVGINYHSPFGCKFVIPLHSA
Excerpt: FIGS. 4A-4F. Discovery of a SuTEx ligand for the hyper-reactive EDC3 Y475 site. (FIG. 4A) Overlap of liganded sites from SuTEx PB modulators with reported RNA granule induction-sensitive lysine and tyrosine sites (RISKYs; Ciancone et al., 2022). The five overlapping sites were further compared to previously reported hyper-RISKY sites (Ciancone et al., 2022) resulting in the identification of the tyrosine-475 (Y475) site on EDC3. (FIG. 4B) Representative immunofluorescence images depicting decreased PBs and increased SGs in AHL-030-treated cells under stress conditions. EKT235 is shown as a negative control. See FIGS. 8 and 9 for additional details. (FIG. 4C) Representative MS1 extracted ion chromatograms (EICs) showing EDC3 Y475 (i.e., amino acid 2 of the peptide sequence […]; SEQ ID NO: 1, which corresponds to amino acids 474-500 of the human enhancer of mRNA-decapping protein 3 isoform 1 polypeptide of GENBANK® Accession No. NP_001135915.1) is liganded by AHL-030 but not EKT235 [SILAC ratio or SR>2 for DMSO vehicle (light, red)/SuTEx fragment ligand (heavy, blue) treatment conditions]. Enrichment (HHS-465/DMSO) and 1:1 (HHS-465/HHS-465) controls are shown. SRs are calculated as the integrated area under the curve ratio of light-to-heavy peptide. Data are representative of n=2-3 biologically independent replicates. […] EDC3-expressing HEK293T cells were pretreated with varying concentrations of AHL-030 (0.1-100 μM, 2 hours) followed by lysis and probe labeling of soluble proteomes with HHS-465 (100 μM, 1 h, RT). The in situ IC50 for EDC3 probe labeling inhibition by AHL-030 was estimated to be ~6 μM. […] Data shown are mean±SEM and representative of n=3 biologically independent replicates. […] Western blots comparing recombinant expression of EDC3 (α-FLAG) and loading controls (α-GAPDH) are shown. Data are representative of n=2 biologically independent replicates.
Among the candidate PB-modulating SuTEx compounds, we focused on AHL-030 because of its PB-inhibitory, SG-enhancing activity in stressed cells and ability to ligand the EDC3 Y475 site (SR >2; FIGS. 4B and 4C). Importantly, we identified a restricted number of reproducibly liganded sites (7 in total) in addition to EDC3 Y475 in chemoproteomic profiling studies of AHL-030 (FIG. 12). We further confirmed AHL-030 as an EDC3 ligand using competitive activity-based protein profiling (ABPP; Grams & Hsu, 2022). Recombinant EDC3-expressing HEK293T cells were treated with a panel of RNP granule modulators including AHL-030 and the negative control compound EKT235 to evaluate structure-activity relationships (SAR, 25 μM compounds, 2 h). Cells were lysed and soluble proteomes labeled with HHS-465 (100 μM, 1 h, RT) followed by CuAAC with rhodamine-azide, SDS-PAGE and in-gel fluorescence scanning. […] Using the in vitro IC50, we calculated the lipophilic efficiency (LipE) of AHL-030 to be ~7, which falls in the range of acceptable lipophilicity in relation to potency (Leeson & Springthorpe, 2007).

Row | inhibition of HHS-465 probe labeling of recombinant EDC3 (in words) ([2]; HHS-465 100 μM, 1 h, RT) | pIC50/EC50: pIC50 ([2]; AHL-030, used for LipE) | IC50 ([2]; IC50 (AHL-030), EDC3 probe labeling, read-out: IC50/EC50 (M): IC50) | IC50 ([2]; in situ, 0.1-100 μM, 2 h, HHS-465 100 μM, 1 h, RT, n=3, read-out: IC50 for EDC3 probe labeling inhibition) | SMILES | inhibition at 25 µM [1] | effect on SG formation (in words) [1]
1 |  |  |  |  | COc1ccc(S(=O)(=O)n2cc(C3CCCCC3)nn2)cc1 [HHS-166, 4-Cyclohexyl-1-((4-methoxyphenyl)sulfonyl)-111-1,2,3-triazole] | 57% | statistically significant decrease in SGs; also recorded: blocked; also recorded: statistically significant decreases in SG formation
2 | largely inactive |  |  |  | N#Cc1ccc(S(=O)(=O)n2cc(-c3cccc(Cl)c3)nn2)cc1 [EKT231, 4-((4-(3-Chlorophenyl)-1H-1,2,3-triazol-1-yl)sulfonyl)benzonitrile] | 9 to 13% | not observed; also recorded: inactive
3 | largely inactive |  |  |  | CC(C)c1cc(C(C)C)c(S(=O)(=O)n2cc(-c3ccc(C(F)(F)F)cc3)nn2)c(C(C)C)c1 [AHL-003] |  | 

Row | SMILES | inhibition of HHS-465 probe labeling of recombinant EDC3 (in words) ([2]; HHS-465 100 μM, 1 h, RT) | pIC50/EC50: pIC50 ([2]; AHL-030, used for LipE) | IC50 ([2]; IC50 (AHL-030), EDC3 probe labeling, read-out: IC50/EC50 (M): IC50) | IC50 ([2]; in situ, 0.1-100 μM, 2 h, HHS-465 100 μM, 1 h, RT, n=3, read-out: IC50 for EDC3 probe labeling inhibition) | inhibition at 25 µM [1] | effect on SG formation (in words) [1]
4 | COc1ccc(S(=O)(=O)n2cc(CS(C)(=O)=O)nn2)cc1 [AHL-030, 1-((4-Methoxyphenyl)sulfonyl)-4-((methylsulfonyl)methyl)-1H-1,2,3-triazole] | blocked HHS-465 probe labeling of EDC3 in a concentration-dependent manner; also recorded: concentration-dependent binding to recombinant EDC3; also recorded: competition of HHS-465 probe labeling | 5.3 | 5.6e-06 M | 6e-06 M and ~6e-06 M |  | 
